The values that follow come from patent US12692256B2, “Salts and crystalline forms of a TAAR1 agonist” (Hoffmann-La Roche Inc., priority 2020, dated 2026).

Entries after “also recorded” stand apart in the source; their conditions may differ. Where a name gives a salt, the structure may show the parent alone. Bounds are passed on as bounds.

The nature of data set [1]: Dynamic Vapour Sorption (DVS) hygroscopicity. Type of data set: physicochemical. Conditions: for Hygroscopicity: increase in mass when relative humidity is raised from 0%-RH to 90%-RH at 25° C.; for Hygroscopicity, weight increase: 0%-RH to 90%-RH at 25° C. How it is done: For each salt formation experiment 5-ethyl-4-methyl-N-[4-[(2S) morpholin-2-yl]phenyl]-1H-pyrazole-3-carboxamide (approx. 450 mg) was dissolved in dioxane (approx. 90 mL) at elevated temperature (approx. 90° C.) in a 100 mL glass vial. The clear solution was then cooled to 60° C. (to approx. 40° C. for adipic acid) prior to the addition of approx. 1.1 equivalents (approx. 0.55 equivalents for sulfuric acid) of a 0.5 M (0.2 M for fumaric acid) stock solution in dioxane of the respective acid under agitation. The reaction mixture was then allowed to reach ambient temperature passively and further agitated overnight. In the cases of adipic acid, the solvent was partially evaporated at this stage to increase the yield. The solid residue was collected by filtration and rinsed with approx. 2 mL of dioxane. A sample of the wet product was analyzed by XRPD. The remainder of the product was dried in a vacuum tray dryer at 50° C./<10 mbar for 2 days prior to analysis by XRPD, DSC, TGA, and, if appropriate, also by DVS.
Moisture sorption/desorption data were collected on a DVS Advantage, a DVS Adventure, or a DVS Intrinsic (SMS Surface Measurements Systems) moisture balance system. The sorption/desorption isotherms were measured stepwise in a range from 0%-RH to 90%-RH at typically 25° C. A weight change of typically <0.001%/min was chosen as criterion to switch to the next level of relative humidity (with a maximum equilibration time of typically 24 hours, if the weight change criterion was not met). The data were corrected for the initial moisture content of the samples by taking the weight after drying of the samples at 0%-RH as zero point. The hygroscopicity of a given substance is characterized (by close analogy with the European Pharmacopoeia) by the increase in mass when the relative humidity is raised from 0%-RH to 90%-RH at 25° C.: […]

A further data set is described as follows: Aqueous solubility. The data set is classed as physicochemical. How it is done: Aqueous solubility was determined by suspending sufficient compound in water water to give a maximum final concentration of 100 mg/mL. The solution was stirred for 24 hours at room temperature (25° C.±5° C.) on a magnetic stirrer using a magnetic stir bar. The final pH of the suspension was measured after 24 hours with a standard pH meter. The suspension was filtered by centrifugation through a ≤0.45 μm PVDF filter. The filtrate was then diluted 1:500 using a solution of ethanol: water (1:1). Quantification was by HPLC using a previously developed HPLC method (Table 4). A standard curve with a concentration range from 0.001 mg/mL-0.3 mg/ml. The solubility was automatically calculated using the peak area of the main peak in the chromatogram.
Aqueous solubility was determined by suspending sufficient compound in water to give a maximum final concentration of ≥10 mg/mL of the parent free-form of the compound. The suspension was equilibrated at 25° C. for 24 hours then the pH was measured. The suspension was then filtered through a glass fibre C filter. The filtrate was then diluted by an appropriate factor e.g. 101. Quantitation was by HPLC with reference to a standard solution of approximately 0.25 mg/mL in DMSO. Different volumes of the standard, diluted and undiluted sample solutions were injected. […]

Setting [2] is: crystalline Form A, between 0-90% RH.

For the compound `CCc1[nH]nc(C(=O)Nc2ccc([C@H]3CNCCO3)cc2)c1C` [Glycolic acid, 5-ethyl-4-methyl-N-[4-[(2S)morpholin-2-yl]phenyl]-1H-pyrazole-3-carboxamide], the Hygroscopicity entry in data set [1] (crude salt forms) was “Very hygroscopic; also recorded: (deliquescent) (deliquescent: sufficient water is adsorbed to form a liquid)”.
The term solubility denotes the concentration that dissolves in the medium under given conditions. A low value points to little dissolved substance. `CCc1[nH]nc(C(=O)Nc2ccc([C@H]3CNCCO3)cc2)c1C` [5-ethyl-4-methyl-N-[4-[(2S)morpholin-2-yl]phenyl]-1H-pyrazole-3-carboxamide, mono hydrochloric acid salt]: the “relative humidity at which rate of water uptake was observed to increase” value in data set [1] (crystalline Form A) is over 80 % RH. Further, in data set [1] (setting [2]), the “hysteresis (DVS)” value is on record as “no hysteresis” and the “mass uptake (DVS)” value is recorded as under 0.1%. The “pH of saturated aqueous solution” value in “Aqueous solubility” (saturated aqueous solution after 24 hours) is listed as 5.3. This compound also returned a solubility at 24 h in “Aqueous solubility” (water, thermodynamic from solid, saturated aqueous solution, 24 hours at 25° C., pH 5.3) of 52.8 mg/mL.
In the case of `CCc1[nH]nc(C(=O)Nc2ccc([C@H]3CNCCO3)cc2)c1C` [Hydrochloric acid, 5-ethyl-4-methyl-N-[4-[(2S)morpholin-2-yl]phenyl]-1H-pyrazole-3-carboxamide], the “Hygroscopicity, weight increase” value in data set [1] (crude salt forms) is “(0.5%-m/m weight”. In data set [1] (re-crystallized salt forms), the “Hygroscopicity, weight increase” value is “(<0.1%-m/m” and the Hygroscopicity entry is recorded as “Non-hygroscopic”.
For `CCc1[nH]nc(C(=O)Nc2ccc([C@H]3CNCCO3)cc2)c1C` [Methanesulfonic acid, 5-ethyl-4-methyl-N-[4-[(2S)morpholin-2-yl]phenyl]-1H-pyrazole-3-carboxamide], the “phase transformation (relative humidity)” value in data set [1] (crude salt form, at 25° C.) was “at >80%-RH at”. Besides, in data set [1] (crude salt forms), the “Hygroscopicity, weight increase” value is reported as “(8.5%-m/m weight” and the Hygroscopicity entry is listed as “Hygroscopic”.
As to `CCc1[nH]nc(C(=O)Nc2ccc([C@H]3CNCCO3)cc2)c1C` [L(+)-Tartaric acid, 5-ethyl-4-methyl-N-[4-[(2S)morpholin-2-yl]phenyl]-1H-pyrazole-3-carboxamide], the “Hygroscopicity, weight increase” value in data set [1] (re-crystallized salt forms) was “(0.4%-m/m”.
The same measure, in the same setting: to `CCc1[nH]nc(C(=O)Nc2ccc([C@H]3CNCCO3)cc2)c1C` [Phosphoric acid, 5-ethyl-4-methyl-N-[4-[(2S)morpholin-2-yl]phenyl]-1H-pyrazole-3-carboxamide] belongs “(0.2%-m/m”.
Consider `CCc1[nH]nc(C(=O)Nc2ccc([C@H]3CNCCO3)cc2)c1C` [Citric acid, 5-ethyl-4-methyl-N-[4-[(2S)morpholin-2-yl]phenyl]-1H-pyrazole-3-carboxamide], for which the Hygroscopicity result in data set [1] (crude salt forms) is listed as “Very hygroscopic; also recorded: (deliquescent) (deliquescent: sufficient water is adsorbed to form a liquid)”.
For `CCc1[nH]nc(C(=O)Nc2ccc([C@H]3CNCCO3)cc2)c1C` [Adipic acid, 5-ethyl-4-methyl-N-[4-[(2S)morpholin-2-yl]phenyl]-1H-pyrazole-3-carboxamide], the “Hygroscopicity, weight increase” value in data set [1] (re-crystallized salt forms) was “(0.2%-m/m”.
In the case of `CCc1[nH]nc(C(=O)Nc2ccc([C@H]3CNCCO3)cc2)c1C` [p-Toluenesulfonic acid, 5-ethyl-4-methyl-N-[4-[(2S)morpholin-2-yl]phenyl]-1H-pyrazole-3-carboxamide], in data set [1] (re-crystallized salt forms), the “Hygroscopicity, weight increase” value is on record as “(<0.1%-m/m” and the Hygroscopicity entry is listed as “Non-hygroscopic”.
The matching figures for `CCc1[nH]nc(C(=O)Nc2ccc([C@H]3CNCCO3)cc2)c1C` [Sulfuric acid, 5-ethyl-4-methyl-N-[4-[(2S)morpholin-2-yl]phenyl]-1H-pyrazole-3-carboxamide]: “(0.1%-m/m” and “Non-hygroscopic”.
